Values of other authors, collected in patent publication US20250312247A1, “OXYGEN GENERATING FACE MASKS” (DERMOQ, INC., priority 2018, published 2025).

Details: topically applied dissolved oxygen, transcutaneous

- depth of penetration through human skin: > 700 μm
Compound: O=O [dissolved oxygen, oxygen]
